Converted amounts (≈) assume the structure as drawn.
Columns and labels:
Plasmodium falciparum [1] = assay: Antimalarial activity after 24 hrs against chloroquine-sensitive Plasmodium falciparum D6 infected type A+ human erythrocytes by [3H]hypoxanthine uptake; format: functional; conditions: read-out: ED50 (the source's name)
Plasmodium falciparum [2] = assay: Antimalarial activity after 24 hrs against chloroquine-resistant Plasmodium falciparum W2 infected type A+ human erythrocytes by [3H]hypoxanthine uptake; format: functional; conditions: read-out: ED50 (the source's name)
[3] = Cytotoxicity against human BCA1 cells after 3 days by sulforhodamine B assay; format: cell-based; conditions: read-out: ED50
[4] = Cytotoxicity against human HT1080 cells after 3 days by sulforhodamine B assay; format: cell-based, HT-1080; conditions: read-out: ED50
[5] = Cytotoxicity against human LUC1 cells after 3 days by sulforhodamine B assay; format: cell-based; conditions: read-out: ED50
[6] = Cytotoxicity against human SK-MEL-2 cells after 3 days by sulforhodamine B assay; format: cell-based; conditions: read-out: ED50
[7] = Cytotoxicity against human Col1 cells after 3 days by sulforhodamine B assay; format: cell-based; conditions: read-out: ED50
[8] = Cytotoxicity against human KB cells after 3 days by sulforhodamine B assay; format: cell-based; conditions: read-out: ED50
[9] = Cytotoxicity against human KBV1 cells after 3 days by sulforhodamine B assay; format: cell-based, KB-V1; conditions: read-out: ED50
[10] = Cytotoxicity against mouse P388 cells after 2 days by sulforhodamine B assay; format: cell-based; conditions: read-out: ED50
[11] = Cytotoxicity against human A431 cells after 3 days by sulforhodamine B assay; format: cell-based, A-431; conditions: read-out: ED50
[12] = Cytotoxicity against human LNCAP cells after 3 days by sulforhodamine B assay; format: cell-based; conditions: read-out: ED50
[13] = Cytotoxicity against human ZR-75-1 cells after 3 days by sulforhodamine B assay; format: cell-based; conditions: read-out: ED50
[14] = Selectivity index, ratio of ED50 for human BCA1 cells to ED50 for chloroquine-sensitive Plasmodium falciparum D6; format: toxicity, cell-based; conditions: read-out: Ratio ED50
[15] = Selectivity index, ratio of ED50 for human BCA1 cells to ED50 for chloroquine-resistant Plasmodium falciparum W2; format: toxicity, cell-based; conditions: read-out: Ratio ED50
[16] = Selectivity index, ratio of ED50 for human HT1080 cells to ED50 for chloroquine-sensitive Plasmodium falciparum D6; format: toxicity, cell-based, HT-1080; conditions: read-out: Ratio ED50
[17] = Selectivity index, ratio of ED50 for human HT1080 cells to ED50 for chloroquine-resistant Plasmodium falciparum W2; format: toxicity, cell-based, HT-1080; conditions: read-out: Ratio ED50
[18] = Selectivity index, ratio of ED50 for human LUC1 cells to ED50 for chloroquine-sensitive Plasmodium falciparum D6; format: toxicity, cell-based; conditions: read-out: Ratio ED50
[19] = Selectivity index, ratio of ED50 for human LUC1 cells to ED50 for chloroquine-resistant Plasmodium falciparum W2; format: toxicity, cell-based; conditions: read-out: Ratio ED50
[20] = Selectivity index, ratio of ED50 for human MEL2 cells to ED50 for chloroquine-sensitive Plasmodium falciparum D6; format: toxicity, cell-based; conditions: read-out: Ratio ED50
[21] = Selectivity index, ratio of ED50 for human MEL2 cells to ED50 for chloroquine-resistant Plasmodium falciparum W2; format: toxicity, cell-based; conditions: read-out: Ratio ED50
[22] = Selectivity index, ratio of ED50 for human COL1 cells to ED50 for chloroquine-sensitive Plasmodium falciparum D6; format: toxicity, cell-based; conditions: read-out: Ratio ED50
[23] = Selectivity index, ratio of ED50 for human COL1 cells to ED50 for chloroquine-resistant Plasmodium falciparum W2; format: toxicity, cell-based; conditions: read-out: Ratio ED50
[24] = Selectivity index, ratio of ED50 for human KB cells to ED50 for chloroquine-sensitive Plasmodium falciparum D6; format: toxicity, cell-based; conditions: read-out: Ratio ED50
[25] = Selectivity index, ratio of ED50 for human KB cells to ED50 for chloroquine-resistant Plasmodium falciparum W2; format: toxicity, cell-based; conditions: read-out: Ratio ED50
[26] = Selectivity index, ratio of ED50 for human KB-V1 cells to ED50 for chloroquine-sensitive Plasmodium falciparum D6; format: toxicity, cell-based; conditions: read-out: Ratio ED50
[27] = Selectivity index, ratio of ED50 for human KB-V1 cells to ED50 for chloroquine-resistant Plasmodium falciparum W2; format: toxicity, cell-based; conditions: read-out: Ratio ED50
[28] = Selectivity index, ratio of ED50 for human LNCaP cells to ED50 for chloroquine-sensitive Plasmodium falciparum D6; format: toxicity, cell-based; conditions: read-out: Ratio ED50
[29] = Selectivity index, ratio of ED50 for human LNCaP cells to ED50 for chloroquine-resistant Plasmodium falciparum W2; format: toxicity, cell-based; conditions: read-out: Ratio ED50
[30] = Selectivity index, ratio of ED50 for human ZR-75-1 cells to ED50 for chloroquine-sensitive Plasmodium falciparum D6; format: toxicity, cell-based; conditions: read-out: Ratio ED50
[31] = Selectivity index, ratio of ED50 for human ZR-75-1 cells to ED50 for chloroquine-resistant Plasmodium falciparum W2; format: toxicity, cell-based; conditions: read-out: Ratio ED50
[32] = Ratio of ED50 for human KB cells to ED50 for human KBV1 cells; format: ADME, cell-based; conditions: KB cells and KBV1 cells, read-out: Ratio ED50
in vitro [33] = conditions: mouse, P388 cells
Description: Selectivity index, ratio of ED50 for mice (Mus musculus) P388 cells to ED50 for chloroquine-sensitive Plasmodium falciparum D6

in vitro [34] = conditions: mouse, P388 cells; remark: listed apart in the source
Description: Selectivity index, ratio of ED50 for mice (Mus musculus) P388 cells to ED50 for chloroquine-resistant Plasmodium falciparum W2

in vitro [35] = conditions: human, A431 cells
Description: Selectivity index, ratio of ED50 for human A431 cells to ED50 for chloroquine-sensitive Plasmodium falciparum D6

in vitro [36] = conditions: human, A431 cells; remark: listed apart in the source
Description: Selectivity index, ratio of ED50 for human A431 cells to ED50 for chloroquine-resistant Plasmodium falciparum W2

SMILES	EC50 (Plasmodium falciparum [1]) [µg/mL]	EC50 (Plasmodium falciparum [2]) [µg/mL]	CC50 at 72 h [3] [µg/mL]	CC50 at 72 h [4] [µg/mL]	CC50 at 72 h [5] [µg/mL]	CC50 at 72 h [6] [µg/mL]	CC50 at 72 h [7] [µg/mL]	CC50 at 72 h [8] [µg/mL]	CC50 at 72 h [9] [µg/mL]	CC50 at 48 h [10] [µg/mL]	CC50 at 72 h [11] [µg/mL]	CC50 at 72 h [12] [µg/mL]	CC50 at 72 h [13] [µg/mL]	selectivity ratio [14]	selectivity ratio [15]	selectivity ratio [16]	selectivity ratio [17]	selectivity ratio [18]	selectivity ratio [19]	selectivity ratio [20]	further results
COc1ccc2cc1Oc1ccc(cc1)C[C@H]1c3c(cc(OC)c4c3Oc3cc5c(cc3O4)CCN(C)[C@@H]5C2)CCN1C	0.0974 (≈ 0.169 µM)	0.256 (≈ 0.443 µM)	2.3 (≈ 3.99 µM)	2.2 (≈ 3.81 µM)	7.7 (≈ 13.4 µM)	8.7 (≈ 15.1 µM)	3.6 (≈ 6.24 µM)	4.8 (≈ 8.32 µM)	0.4 (≈ 0.694 µM)	5.6 (≈ 9.71 µM)	2.6 (≈ 4.51 µM)	2.1 (≈ 3.64 µM)	1.2 (≈ 2.08 µM)	24	9	23	9	79	30	89	selectivity ratio [21]: 34; selectivity ratio [22]: 37; selectivity ratio [23]: 14; selectivity ratio [24]: 49; selectivity ratio [25]: 19; selectivity ratio [26]: 4; selectivity ratio [27]: 2; selectivity ratio [28]: 22; selectivity ratio [29]: 8; selectivity ratio [30]: 12; selectivity ratio [31]: 5; selectivity ratio [32]: 10; selectivity ratio (in vitro [33]): 57; selectivity ratio (in vitro [34]): 22; selectivity ratio (in vitro [35]): 27; selectivity ratio (in vitro [36]): 10
COc1ccc2cc1Oc1ccc(cc1)C[C@H]1c3c(cc4c(c3Oc3cc5c(cc3OC)CCN(C)[C@@H]5C2)OCO4)CCN1C [CEPHARANTHINE]	0.14 (≈ 0.231 µM)	0.295 (≈ 0.486 µM)	4.7 (≈ 7.75 µM)	6.1 (≈ 10.1 µM)	8.8 (≈ 14.5 µM)	14.5 (≈ 23.9 µM)	9 (≈ 14.8 µM)	5.9 (≈ 9.72 µM)	0.9 (≈ 1.48 µM)	0.3 (≈ 0.494 µM)	2.1 (≈ 3.46 µM)	5.6 (≈ 9.23 µM)	1 (≈ 1.65 µM)	34	16	44	21	52	25	103	selectivity ratio [21]: 49; selectivity ratio [22]: 64; selectivity ratio [23]: 31; selectivity ratio [24]: 42; selectivity ratio [25]: 20; selectivity ratio [26]: 6; selectivity ratio [27]: 3; selectivity ratio [28]: 40; selectivity ratio [29]: 19; selectivity ratio [30]: 7; selectivity ratio [31]: 3; selectivity ratio (in vitro [33]): 2; selectivity ratio (in vitro [34]): 1; selectivity ratio (in vitro [35]): 15; selectivity ratio (in vitro [36]): 7
COc1ccc2cc1Oc1ccc(cc1)C[C@H]1c3c(cc(OC)c(O)c3Oc3cc4c(cc3OC)CCN(C)[C@@H]4C2)CCN1C [HOMOAROMOLINE]	0.105 (≈ 0.172 µM)	0.288 (≈ 0.474 µM)	3.6 (≈ 5.91 µM)	9 (≈ 14.8 µM)	8.6 (≈ 14.1 µM)	9 (≈ 14.8 µM)	10 (≈ 16.4 µM)	6.3 (≈ 10.3 µM)	3.1 (≈ 5.09 µM)	3.7 (≈ 6.08 µM)	8.9 (≈ 14.6 µM)	3.4 (≈ 5.59 µM)	1.2 (≈ 1.97 µM)	34	13	86	31	93	34	86	selectivity ratio [21]: 31; selectivity ratio [22]: 96; selectivity ratio [23]: 35; selectivity ratio [24]: 60; selectivity ratio [25]: 22; selectivity ratio [26]: 30; selectivity ratio [27]: 11; selectivity ratio [28]: 33; selectivity ratio [29]: 12; selectivity ratio [30]: 19; selectivity ratio [31]: 7; selectivity ratio (in vitro [33]): 35; selectivity ratio (in vitro [34]): 13; selectivity ratio (in vitro [35]): 85; selectivity ratio (in vitro [36]): 31
COc1ccc2cc1Oc1ccc(cc1)C[C@H]1c3c(cc(OC)c(OC)c3Oc3cc4c(cc3OC)CCN(C)[C@@H]4C2)CCN1C [OBABERINE]	0.231 (≈ 0.371 µM)	0.216 (≈ 0.347 µM)	4.6 (≈ 7.39 µM)	10.4 (≈ 16.7 µM)	9.7 (≈ 15.6 µM)	20 (≈ 32.1 µM)	10.8 (≈ 17.3 µM)	8.6 (≈ 13.8 µM)	2.6 (≈ 4.17 µM)	4.1 (≈ 6.58 µM)	8.7 (≈ 14 µM)	5 (≈ 8.03 µM)	4 (≈ 6.42 µM)	20	21	45	48	42	45	87	selectivity ratio [21]: 93; selectivity ratio [22]: 47; selectivity ratio [23]: 50; selectivity ratio [24]: 37; selectivity ratio [25]: 40; selectivity ratio [26]: 11; selectivity ratio [27]: 12; selectivity ratio [28]: 22; selectivity ratio [29]: 23; selectivity ratio [30]: 17; selectivity ratio [31]: 19; selectivity ratio (in vitro [33]): 18; selectivity ratio (in vitro [34]): 19; selectivity ratio (in vitro [35]): 38; selectivity ratio (in vitro [36]): 40
C=C[C@H]1CN2CC[C@H]1C[C@H]2[C@H](O)c1ccnc2ccc(OC)cc12 [QUININE]	0.0076 (≈ 0.0234 µM)	0.0308 (≈ 0.0949 µM)	> 20	> 20	> 20	> 20	> 20	> 20	5.6 (≈ 17.3 µM)	> 5	> 20	> 20	> 20	> 2630	649	> 2630	649	> 2630	649	> 2630	selectivity ratio [21]: 649; selectivity ratio [22]: > 2630; selectivity ratio [23]: 649; selectivity ratio [24]: > 2630; selectivity ratio [25]: 649; selectivity ratio [26]: 737; selectivity ratio [27]: 182; selectivity ratio [28]: > 2630; selectivity ratio [29]: 649; selectivity ratio [30]: > 2630; selectivity ratio [31]: 649; selectivity ratio (in vitro [33]): > 658; selectivity ratio (in vitro [34]): > 658; selectivity ratio (in vitro [35]): > 2630; selectivity ratio (in vitro [36]): 649
